# Laboratory results as given in patent US8106099B2, “Combination of phenylcarboxamides with blockers of the IKr channel and their use for the treatment of atrial arrhythmias” (Sanofi-Aventis Deutschland GmbH, priority 2003, dated 2012).
# “Also recorded” adds a separate entry of the source.
# How the values were obtained:
# [1] = system: goats in persistent atrial fibrillation; assay: Investigation of cardioversion and AFCL in chronically fibrillating goats (two goats); format: in vivo; details: for effect on the AFCL by the substance on its own (in words) / cardioversion / termination of persistent fibrillation by the substance on its own: persistent AF goat model; for cardioversion / termination of persistent fibrillation by the substance on its own: example 1 at 0.1-10 mg/kg/h in the goat of table 4
# Experimental: Investigation of Cardioversion in Chronically Fibrillating Goats
# Experiments were carried out on two goats which were in persistent atrial fibrillation of more than 45 days.
# The measurements of the AFCL and of the cardioversion were carried out successively.
# [2] = system: normal and remodeled atria of goats; assay: Investigation of the refractory period (AERP) in normal goats and in goats with remodeled atria; format: in vivo; details: for effect on the AERP in remodeled atrium compared with normal atrium: remodeled versus normal atrium
# Experimental: Investigation of the Refractory Period in Normal Goats and in Goats with Remodeled Atria
# This electrical remodeling, which reflects the situation in the patient, was achieved by repetitive atrial stimulations as published by Wijffels et al. (Atrial fibrillation begets atrial fibrillation. A study in awake chronical instrumented goats. Circulation 1995, 92, 1954-68).
# In the monotherapy, 0.12 mg of ibutilide per kg of bodyweight was administered over the length of time of 60 minutes (0.002 mg per kg per minute).
# A similar infusion scheme was carried out on 5 further animals with dofetilide instead of ibutilide. […] In the monotherapy, 0.12 mg of dofetilide per kg of bodyweight was administered over the length of time of 60 minutes (0.002 mg per kg per minute).
SMILES,effect on the AFCL by the substance on its own (in words) [1],cardioversion / termination of persistent fibrillation by the substance on its own [1],effect on the AFCL by the substance on its own (in words) ([1]; listed as ibutilide),"prolongation of the AERP ([2]; remodeled atria, n=7 goats, ibutilide study)",effect on the AERP in remodeled atrium compared with normal atrium [2],"prolongation of the AERP ([2]; remodeled atria, n=5 goats, dofetilide study)","doses of the compound of example 1 that brought about cardioversion / termination of the atrial fibrillation ([1]; goat of table 3, monotherapy, or combination with ibutilide 2 mg/kg)","dose of the Kv1.5 blocker of example 1 leading to cardioversion / termination of persistent fibrillation ([1]; summary in description, combination with very low doses (for example 10 μg/kg) of the IKr channel blocker)","prolongation of the AERP ([2]; normal atria, n=5 goats, dofetilide study)","prolongation of the AERP ([2]; normal atria, n=7 goats, ibutilide study, relative to control before administration)","effective atrial refractory period (AERP), mean value ± SD ([2]; remodeled atria (induced AF 1 to 4 days), 7 goats, cycle length 400 ms, same infusion scheme with ibutilide)"
CCCCCCCN(CC)CCCC(O)c1ccc(NS(C)(=O)=O)cc1.O=C(O)/C=C/C(=O)O (centres unmarked) [Ibutilide],very small increase,not to a termination of the fibrillation,slight prolongation,5 ms,markedly lower,–,–,–,–,–,–
CN(CCOc1ccc(NS(C)(=O)=O)cc1)CCc1ccc(NS(C)(=O)=O)cc1 [Dofetilide],slight prolongation,a cardioversion does not occur; also recorded: not to a termination of the fibrillation,–,–,markedly lower,7 ms,–,–,–,–,–
"COc1ccc(CC(=O)NCc2ccccc2-c2ccccc2C(=O)NCCc2cccnc2)cc1 [Example 1, 2′-{[2-(4-Methoxyphenyl)acetylamino]methyl}biphenyl-2-carboxylic acid (2-pyridin-3-ylethyl)amide]",dose-dependent increase,not to cardioversion,–,–,markedly greater,–,10 mg per kg of bodyweight per ho,10 mg/kg,51 ms,47 ms,160 ± 16 ms
